The subject of one data set is KCL-22 cells. Description: Resistance assay: relapse of KCL-22 cells in prolonged liquid culture (CML acquired resistance model). It counts as cell-based, human. The conditions noted are these: for relapse of KCL-22 cells on 5 μM STI-571 in combination / cell death by the inhibitor alone: 300 μM splitomicin or 15 mM nicotinamide; for cell death by the inhibitor alone: first two weeks; for relapse of KCL-22 cells on imatinib (STI-571) in combination with the inhibitor: prolonged culture. The text has this: Cells were maintained in these cultures without changing medium.
Cells were maintained in these cultures without changing medium. Aliquots of cells were taken out at specified time points and cell numbers counted using a hematocytometer. Cell viability was accessed by trypan blue exclusion where necessary.

The next data set concerns HIC1. Description: HIC1 expression / SIRT1 level after HDAC and DNMT inhibitors. The format is cell-based, human. As to conditions: KCL-22 cells, alone or in combination. An excerpt: Total cellular RNA with Trizol (Invitrogen) using a standard protocol. First strand DNA was synthesized and HIC1 expression by quantitative real-time RT-PCR using a kit with SYBR Green label (Invitrogen) as per the manufacture's instruction on a BioRad machine OPTICON. The following are the HIC1 primers (spanning introns), 5′-[…]-3′(exon 1a) and 5′-[…]-3′ (Exon 2). [>ref|NT—010718.15|Hs17—10875:1561637-1565694 Homo sapiens chromosome 17 genomic contig, reference assembly]
SIRT1 expression was analyzed by Western blot using 1:5000 diluted rabbit monoclonal SIRT1 antibody (Epitomics). Controls used were GAPDH or actin as loading controls with rabbit anti-GAPDH (Trevigen) or anti-actin (Sigma) at 1:5000 dilution. GAPDH [>ref|NT—009759.15|Hs12—9916:6497433-6502281 Homo sapiens chromosome 12 genomic contig, reference assembly] primers used are as follows: […]

For the next data set, the system named is KCL-22M cells. As to conditions: 1 μM inhibitor.
Another data set concerns BCR-ABL mutants. The conditions noted are these: cited from earlier work.
In data set [1] the test system is CML patients with T315I mutation. As to conditions: human, in vivo; cited from earlier work.
A further data set concerns FOXO1. Put plainly: Flow cytometry assay of acetylation of FOXO1 in KCL-22 cells. The format is cell-based, human. The conditions noted are these: compound treatment for 24 h. On the procedure: SIRT1 inhibitor-induced acetylation of cellular SIRT1 substrates, Ku70 and FOXO proteins, are determined by immunoprecipitation of these proteins followed by Western blot analysis for acetyl lysine. Acetylation of FOXO1 is also directly examined by flow cytometry-based analysis as done in FIG. 40D.
For orientation: Flow cytometry measures light scatter and fluorescence of single cells or particles in a stream.

The target in a further data set is T1, SIRT1 (Homo sapiens, UniProt Q96EB6).
T1 sequence (Q96EB6 1-747): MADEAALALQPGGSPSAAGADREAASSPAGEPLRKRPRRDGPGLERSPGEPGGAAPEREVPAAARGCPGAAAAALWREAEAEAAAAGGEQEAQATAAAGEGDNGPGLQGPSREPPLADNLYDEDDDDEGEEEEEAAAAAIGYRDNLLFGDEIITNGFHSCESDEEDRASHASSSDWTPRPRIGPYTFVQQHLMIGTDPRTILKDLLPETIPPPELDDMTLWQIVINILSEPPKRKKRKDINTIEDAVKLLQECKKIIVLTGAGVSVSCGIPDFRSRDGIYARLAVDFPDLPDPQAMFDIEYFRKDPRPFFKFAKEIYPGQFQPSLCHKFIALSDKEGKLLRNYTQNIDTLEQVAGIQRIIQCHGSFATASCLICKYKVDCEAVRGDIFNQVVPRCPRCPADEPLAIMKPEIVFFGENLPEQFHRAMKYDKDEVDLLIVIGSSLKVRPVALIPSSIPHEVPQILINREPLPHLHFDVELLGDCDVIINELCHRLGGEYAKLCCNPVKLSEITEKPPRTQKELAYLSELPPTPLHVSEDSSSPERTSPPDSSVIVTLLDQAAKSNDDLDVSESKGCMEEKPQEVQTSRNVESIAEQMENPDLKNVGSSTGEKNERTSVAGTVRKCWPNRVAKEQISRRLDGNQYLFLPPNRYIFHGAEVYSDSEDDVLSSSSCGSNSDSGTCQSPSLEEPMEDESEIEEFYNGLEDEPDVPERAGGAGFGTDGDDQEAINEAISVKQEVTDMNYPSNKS
Put plainly: FRET-based SIRT1 inhibition assay. As to conditions: All compounds in 50 μM.

The values that follow come from patent publication US9176114B2, “Cell culture model for acquired chemoresistance of chronic myelogenous leukemia and related methods for identifying agents to overcome resistance” (CITY OF HOPE, priority 2007, dated 2015).

Each structure is given as a SMILES string. “Also recorded” adds a separate entry of the source.

Procedure for KCL-22M cells: Cell cycle was analyzed by fixing cells with 70% ethanol at −20° C. overnight. After washing, cells were resuspended in phosphate-buffered saline containing 1 mg/ml RNase A, incubated for 30 min at 37° C., and then stained with propidine iodine (50 μg/ml) for 30 min at room temperature before flow cytometry analysis. Cell proliferation was analyzed using a XTT Cell Proliferation kit (Roche Applied Science), and apoptosis was analyzed with annexin V kit (BD Pharmingen) as per the manufacturer's instruction.

As for `Nc1ncn([C@H]2C[C@H](O)[C@@H](CO)O2)c(=O)n1` [AZA, 5-aza-2-deoxycytidine], the “relapse on AZA plus STI-571” value with KCL-22 cells (1 μM AZA with STI-571) was “did successfully block relapse on 2.5 and 5 μM; also recorded: blocked relapse at 2.5 and 5 μM of STI-571”. Further, the “reactivation of HIC1 expression / reduction of SIRT1 level” value with HIC1 is on record as “could not reactivate HIC1 expression or reduce SIRT1 level”. Further, the “growth of KCL-22M cells” value with KCL-22M cells is recorded as “inhibited its growth but did not promote significant cell death”.
Take `CC(=O)N[C@@H](CS)C(=O)O` [NAC, N-acetylcysteine]: in the data set on KCL-22 cells (50 mM NAC), the cytotoxicity entry is recorded as “significant cytotoxicity”.
In the case of `Cc1cn(-c2cc(NC(=O)c3ccc(C)c(Nc4nccc(-c5cccnc5)n4)c3)cc(C(F)(F)F)c2)cn1` [Nilotinib], the BCR-ABL mutants inhibited result in the data set on BCR-ABL mutants is “inhibits most of the known mutants with the exception of the T315I mutation”.
Take `Cc1cc(Nc2cc(N3CCN(C)CC3)nc(Sc3ccc(NC(=O)C4CC4)cc3)n2)n[nH]1` [VX-680]: in data set [1], the clinical response entry was “Three CML patients with T315I mutation responded”. Further, the “inhibition of T315I BCR-ABL” value with BCR-ABL mutants is listed as “potently inhibits”.
For `O=C(NN=Cc1c(O)ccc2ccccc12)c1ccncc1` [compound 22, N′-((2-hydroxyl-1-naphthyl)methylene)isonicotinohydrazide], the “inhibitory activity (block of CML relapse) compared with compound 163580” value in the data set on KCL-22 cells is given as “better inhibitory activity than 163580”. The “acetylation of FOXO1” value in the data set with FOXO1 is “outperformed sirtinol and tenovin-6”. At SIRT1, the “SIRT1 inhibition in FRET-based biochemical assay” value was “outperformed sirtinol and tenovin-6”.
Turning to `CC(=NNC(=O)c1ccncc1)c1ccc2ccccc2c1O` [compound 24, N′-(1-(1-hydroxy-2-naphthyl)ethylidene)isonicotinohydrazide], the “inhibitory activity (block of CML relapse) compared with compound 163580” value with KCL-22 cells was “better inhibitory activity than 163580”. Further, the “acetylation of FOXO1” value in the data set on FOXO1 is “outperformed sirtinol and tenovin-6”. Moreover, the “SIRT1 inhibition in FRET-based biochemical assay” value at SIRT1 was “outperformed sirtinol and tenovin-6”.
Take `Oc1ccc2ccccc2c1C1=NNc2n[nH]c(=S)n2N1` [compound 163580]: in the data set on KCL-22 cells, the “prevention of CML cell relapse upon imatinib compared with sirtinol (50 μM)” value (“prevention … compared with sirtinol (50 μM)” for short) is “more effective in preventing CML cell relapse upon imatinib treatment than an effective dose of sirtinol”.
Consider `COc1ccc2nc3cc(Cl)ccc3c(NCCCCN3CCCC3)c2n1.Cl.Cl.Cl` [compound 261408], for which, in the data set on KCL-22 cells, the “prevention … compared with sirtinol (50 μM)” value is on record as “more effective in preventing CML cell relapse upon imatinib treatment than an effective dose of sirtinol” and the toxicity to cells entry is “too toxic to cells”.
For `Clc1ccc2nc(CCSCCc3nc4ccc(Cl)cc4[nH]3)[nH]c2c1` [compound 628445], the “prevention … compared with sirtinol (50 μM)” value with KCL-22 cells is recorded as “more effective in preventing CML cell relapse upon imatinib treatment than an effective dose of sirtinol”.
Regarding `CCN(C(C)=O)c1cnc(C=NNC(N)=S)c2ccccc12` [compound 687305], the “prevention … compared with sirtinol (50 μM)” value with KCL-22 cells is “more effective in preventing CML cell relapse upon imatinib treatment than an effective dose of sirtinol”.
Regarding `NC(=O)c1cccnc1` [nicotinamide], in the data set on KCL-22 cells, the “lowest dose that blocked relapse on imatinib” value worked out at 1 µM; the “relapse of KCL-22 cells on 5 μM STI-571 in combination” value is “effectively blocked; also recorded: blocked relapse”; the “cell death by the inhibitor alone” value is reported as “did not, by themselves, induce significant cell death”; the “relapse of KCL-22 cells on imatinib (STI-571) in combination with the inhibitor” value is reported as “blocks relapse”.
As to `O=C1CCc2c(ccc3ccccc23)O1` [splitomicin], in the data set on KCL-22 cells, the “relapse of KCL-22 cells on 5 μM STI-571 in combination” value was “effectively blocked; also recorded: blocked relapse”; the “cell death by the inhibitor alone” value is “did not, by themselves, induce significant cell death”; the “relapse of KCL-22 cells on imatinib (STI-571) in combination with the inhibitor” value was “blocks relapse”.
